Measurements as given in PubChem BioAssay AID179 (DTP/NCI, 2004).
pEC50, pIC50: −log10 of the molar value. Values joined by “and” are separate entries in the source; they are usually repeats but may differ in a detail not shown here. Equal values may be shown once. Active and inactive are the calls of the source.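 Rule for the calls: active = compounds giving half or more protection of infected cells from virus-caused growth loss, again on retest; inactive = the rest.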 Where a SMILES comes first, the peptide text is derived from it.

Test system: CEM cells HIV-1 protection, formazan growth assay
Assay: NCI AIDS Antiviral Assay
Settings: for pIC50: measured here: growth of uninfected CEM cells
Summary of the method: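 Screen of anti-HIV-1 activity in human CEM cells using a formazan-based growth measurement at five drug concentrations. Hits with 50% or greater protection were repeated, and confirmation required reproducible complete protection.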

SMILES | outcome | pEC50 | pIC50
O=C(Nc1ccc(Cl)cc1)NS(=O)(=O)c1c(-c2ccccc2)oc2ccccc2c1=O | inactive | – | –
COC1C=CC(C(=O)[N+]2=Cc3[nH]c4ccccc4c3CC2)O1 (stereo unspecified) | – | < 3.60 | 4.07
O=c1oc2c(ccc3nc(-c4ccccc4)sc32)c(N2CCOCC2)c1Cl | inactive | – | –
CNC(=O)O/N=C1\N(C)CN(c2ccccc2)C12CCN(CCCC(=O)c1ccc(F)cc1)CC2 | – | < 3.70 | 3.98
Cc1ccc(-n2[nH]nc(C#N)c2=O)cc1 | – | < 3.70 | < 3.70
CCOC(=O)CCC(NC(=O)OCc1ccccc1)C(=O)NNC(=O)OC(C)(C)C (stereo unspecified) | – | < 3.70 | < 3.70
CCn1c(C)nn2c(=O)c3ccccc3nc2c1=O | – | < 4.00 | < 4.00
Nc1c(-c2nc3ccccc3[nH]2)sc(=S)n1-c1ccccc1 | – | < 4.94 | < 4.94
O=C(/C=C/c1ccc(Cl)cc1)c1cccs1 | – | < 3.70 | 5.91
N#Cc1ccccc1Nc1ccccc1S | – | < 4.78 | < 4.78
Cc1cc(Cl)ccc1N=C1NC(=O)C(CC(=O)Nc2cccc(C)c2C)S1 (stereo unspecified) | – | < 3.63 | 4.18
Nc1c(-c2nc3ccccc3s2)[n+]([O-])c2ccccc2[n+]1[O-] | inactive | – | –
NC1=Nc2ccccc2Sc2ccccc21 | – | < 4.22 | < 4.22
COc1cccc(C=C2N=C(C)N(n3c(-c4ccccc4)nc4ccccc4c3=O)C2=O)c1 | – | < 3.70 | 4.14
Brc1ccc(-c2nnc(-c3nn(-c4ccccc4)c4nc5ccccc5nc34)o2)cc1 | – | < 5.09 | < 5.09
NC(CCc1nc(-c2ccc(Cl)cc2)cs1)C(=O)O (stereo unspecified) | inactive | – | –
C1CCCCC2(CCCCCCCCC3(CCC1)OCCO3)OCCO2 | – | < 3.70 | < 3.70
CN(C)C1=NC2=S(SC(Nc3ccccc3)=N2)S1 (stereo unspecified) | inactive | – | –
O=[N+]([O-])c1ccc(/C=C/C=C/C=C/C=C/c2ccc(S(=O)(=O)F)cc2Cl)c(Cl)c1 | – | < 3.70 | 3.73
CCOC(=O)C(c1c(O)c2ccccc2oc1=O)c1c(O)c2ccccc2oc1=O | – | < 3.21 | 4.19
COc1ccc2c(c1)CCC1C[C@@H]3C[C@]21C=CC3=O (stereo partly specified) | – | < 3.74 | 4.31 and < 4.55
Cc1ccc2c(ccc(/C=C\c3cc(C)c4cccnc4c3O)[n+]2C)c1 | – | < 4.40 | 6.11

SMILES | outcome | pEC50 | pIC50
CCc1cc(-c2cccc3ccccc23)c(C#N)c(=S)n1C1OC(CO)C(O)C(O)C1O (stereo unspecified) | – | < 3.70 | 4.21
CC(=O)OCC1OC(n2c3c(cc(C#N)c2=S)CCCCC3)C(OC(C)=O)C(OC(C)=O)C1OC(C)=O (stereo unspecified) | – | < 3.70 | < 3.70
CC(C)S(=O)(=O)n1c(N)nc2ccc(/C(=N/O)c3ccccc3)cc21 | – | 5.30 | 5.01
O=C(CCCCCCCCCCc1ccccc1)c1c(O)cccc1O | – | < 4.83 | < 4.83
CN(CCC#N)c1ccc(/C=C(\C#N)c2cccc(C(F)(F)F)c2)cc1 | – | < 3.70 | 5.44
O=C(Cn1c2ccc(Br)cc2c2nc3ccccc3nc21)NNC(=S)NC1CCCCC1 | – | < 3.70 | 4.44
C=C1[C@H]2C(=O)[C@H]3[C@@H]4N(C)C5CC3([C@@H]1OC(C)=O)[C@@H](C2OC(C)=O)C41[C@H](OC(C)=O)C(OC(=O)c2ccccc2)C[C@@](C)(C=O)[C@@H]51 (stereo partly specified) | inactive | – | –
COc1ccccc1NC(=O)C1=C(C)NC(C)=C(C(=O)Nc2ccccc2OC)C1c1cccc2ccccc12 | – | < 5.01 | < 5.01
CC(C)(C)C(=O)OC12/C(=N/O)CCCCCC1c1ccccc12 (stereo unspecified) | – | < 3.70 | 4.43
CCOC(=O)C1C(=O)CC(O)(c2ccccc2)C(C(=O)OCC)C1c1ccc(OC)cc1 (stereo unspecified) | – | < 3.70 | 5.30
CN1CC=C(c2c(N)nc(N)[nH]c2=O)CC1 | – | < 3.70 | < 3.70
COc1ccc2c3c1O[C@]1(C)C34CCN(C)C(C2)C42C=C[C@@]1(OC)c1c(O)ccc(O)c12 | – | < 4.22 | < 4.22
O=C1CN2Cc3cc(N4CCOCC4)ccc3N=C2N1 | – | < 3.59 | 4.39
COc1ccccc1C1=C2C(=O)N(C)C(c3ccccc3OC)=C2C(=O)N1C | – | < 4.00 | < 4.00
Clc1ccc(-c2c(C3=NCCN3)nnn2-c2ccc(Cl)cc2)cc1 | – | < 3.86 | 3.94
CC(C)(C)C1CCC(O)(c2ccccc2)CC1 (stereo unspecified) | – | < 4.37 | < 4.37
Cc1cc(Cl)c(O)c(C2(C(O)c3ccc(O)cc3)NC(=S)NC2=O)c1 (stereo unspecified) | – | < 3.70 | 3.97
CCCCCCC(C)CCCCCCCCCCC(=O)O (stereo unspecified) | inactive | – | –
Cc1c2ccccc2nc(CS(=O)c2ccccc2)[n+]1[O-] (stereo unspecified) | – | < 3.70 | 3.73
CCCCCCCCCCCCCCCCOCC(COC1OC(COC(C)=O)C(OC(C)=O)C(OC(C)=O)C1OC(C)=O)OCCCCCCCCCCCCCCCC (stereo unspecified) | – | < 4.53 | < 4.53
O=C1CSC(C(N=Nc2ccc(Cl)cc2)c2nc3ccccc3[nH]2)=N1 (stereo unspecified) | – | < 5.71 | < 5.71
CCCCN=C(NCCCC)OC1CCCCC1 | – | < 3.70 | 4.19

SMILES | outcome | pEC50 | pIC50
O=[N+]([O-])c1ccc2c(c1)n1c(N3CCCC3)[n+]3ccccc3c1c1c3cccc[n+]3c(N3CCCC3)n21 | – | 4.14 | 4.11
O=S1(=O)CC(c2ccccc2)(c2ccccc2)Nc2ccccc21 | – | < 3.70 | < 4.00
COC(=O)c1ccccc1C1CN=NC12Cc1cc(C)ccc1C2=O (stereo unspecified) | – | < 3.70 | < 3.70
CCOC(=O)c1nc2ccccc2nc1NCc1ccc(Cl)cc1Cl | – | < 4.00 | 4.14
O=C1NC(=O)C(=Cc2ccccc2Br)C(=O)N1 | inactive | < 3.64 | 5.62
Cc1cc2nc3n(c2cc1C)C(c1c(F)cccc1F)SC3 (stereo unspecified) | – | < 4.35 | 4.68
Cn1c(=O)c2c(nc3sc4c(n32)C(=O)c2c(O)ccc(O)c2C4=O)n(C)c1=O | – | 6.70 | 6.59
Cc1cc(=O)[nH]c(NN2C(Cl)C(=O)C2c2ccccc2O)n1 (stereo unspecified) | – | < 4.23 | 5.44
COc1cc2c(c3c1C(=O)[C@H](C)[C@@H](C)O3)C=CC(C)(C)O2 | – | < 3.70 | 4.30
Nc1ccc2c(c1)C1(NC(=O)NC1=O)c1cc(N)ccc1-2 | – | < 3.70 | < 3.70
O=C1[C@H]2ON(c3ccccc3)C(c3ccccc3Cl)[C@H]2C(=O)N1c1ccc(Cc2ccc(N3C(=O)[C@@H]4ON(c5ccccc5)C(c5ccccc5Cl)[C@@H]4C3=O)cc2)cc1 (stereo partly specified) | – | < 5.06 | < 5.06
COc1ccc(C(=O)Cc2nc3nnc(N)n3nc2CC(=O)c2ccc(OC)cc2)cc1 | – | < 3.24 | < 3.24
O=c1[nH][nH]c(=O)n1CCCCCCn1c(=O)[nH][nH]c1=O | – | < 3.70 | < 3.70
CCN(CCCl)c1cc(C(=O)Nc2cc(NC(=O)c3cc(N(CC)CCCl)c([N+](=O)[O-])cc3[N+](=O)[O-])cc(C(=O)NCCN(C)C)c2)c([N+](=O)[O-])cc1[N+](=O)[O-] | – | < 3.70 | 3.90
CCCCCCC(O)CCCCCCCCCCC(=O)OCC(COC(=O)CCCCCCCCCCC(O)CCCCCC)OC(=O)CCCCCCCCCCC(O)CCCCCC (stereo unspecified) | – | < 4.00 | < 4.00
CCCc1c(-c2ccc(OC)cc2)c(=O)oc2cc(O)ccc12 | – | < 3.70 | 4.27
CCOC(=O)c1ccc(CS(=O)(=O)c2ccccc2)cc1 | – | < 4.63 | < 4.63
CP(C)CC[PH+](CC[PH+](C)C)CC[PH+](C)C.[C-]#[O+].[C-]#[O+].[W] | inactive | – | –
CCC(C)C(NC(=O)C(CCCN=C(N)N)NC(=O)C(CC(=O)O)NC(=O)C(Cc1cnc[nH]1)NC(=O)C(N)CC(C)C)C(=O)NC(C(=O)NC(CC(C)C)C(=O)NC(C(=O)NC(Cc1cnc[nH]1)C(=O)O)C(C)O)C(C)CC (stereo unspecified) (H-LHDRIILTH-OH; configuration not given here) | – | < 4.35 | < 4.35
CCOC(=O)C(NC(=O)Nc1ccc(Cl)c(Cl)c1)C(F)(F)F (stereo unspecified) | – | < 3.70 | 3.85
Cc1cccc(C(C)(C)C)c1NC(=O)CCc1n[nH]c(=S)o1 | – | < 3.11 | 3.16
CSc1c(C(=O)Nc2ccc(C)cc2)c(N)n(N)c(=O)c1C#N | – | 4.00 | 3.82

SMILES | outcome | pEC50 | pIC50
Nc1cccc2nnccc12 | – | < 3.70 | < 3.70
COc1ccc2ncc(COC(=O)NC3CCCCC3)c(COC(=O)NC3CCCCC3)c2c1 | – | < 3.76 | 4.39
CCOC(=O)c1[nH]c2c(cc(C=O)c3ccccc32)c1C | – | < 3.70 | 4.22
O=c1ccn(C2OC(CO)C(O)C2[Se]c2ccccc2)c(=O)[nH]1 (stereo unspecified) | – | < 3.70 | < 3.70
CC(CC(=O)Nc1ccc(NC(=O)CC(C)N=NC(N)=S)cc1)N=NC(N)=S (stereo unspecified) | – | < 3.80 | 3.99
Fc1ccc(C2=NOC3COC4C=CC=CC4OCC23)cc1 (stereo unspecified) | – | < 3.92 | < 3.92
NN1CCOC1=O | – | < 3.70 | < 3.70
O=c1[nH]c(F)nc2c1ncn2C1OC(CO)C(O)C1O (stereo unspecified) | – | < 3.70 | < 3.70
N#Cc1cc(Sc2ccc(N)c(C#N)c2)ccc1N | – | < 3.70 | 4.96
COCc1cc2c(cc1/C(=C/[N+](=O)[O-])CS(=O)(=O)c1ccccc1)OCO2 | – | < 3.70 | 3.99
CC1=C2C3OC(=O)C(C)C3C(O)C[C@@]2(C)C(=O)CC1 (stereo partly specified) | inactive | – | –
CN/C=C(\C(=O)c1ccc(OC)c(OC)c1)c1ccc(OC)cc1 | – | < 3.40 | 5.16
COc1ccc(C(C#N)NNc2nc(C)cc(=O)[nH]2)cc1OC (stereo unspecified) | – | < 3.10 | 3.63
Cc1ccc(C2C(Cl)C(=O)N2n2cnc3ccccc3c2=O)cc1 (stereo unspecified) | – | < 4.40 | < 4.40
O=S(=O)(O)OC1CCCCC1Nc1ccccc1 (stereo unspecified) | inactive | – | –
BrC1=CC=C2NC=CC3=CC=NC1C32 (stereo unspecified) | inactive | – | –
CC1(c2nc3ccccc3[nH]2)CCC(CO)C(C)(C)O1 (stereo unspecified) | – | < 3.70 | < 3.70
O=c1cn[nH]c2c(Cl)cccc12 | – | < 3.23 | 3.45
O=C(O)c1cc2c(cn1)[nH]c1ccccc12 | inactive | – | –
CC(=O)Oc1c(C)cc2c(c1C)C(C)CN2C(C)=O (stereo unspecified) | – | < 3.70 | < 3.70
